The values below are quoted from earlier work in US20030157104A1, “Treatment of refractory human tumors with epidermal growth factor receptor antagonists” (priority 1999, published 2003).

For the data set, the system named is FGFR. To be noted: Panek et al.

`CCN(CC)CCOc1ccc(Nc2ncc3cc(-c4c(Cl)cccc4Cl)c(=O)n(C)c3n2)cc1` [PD166285, 6-(2,6-dichlorophenyl)-2-(4-(2-diethylaminoethoxy)phenylamino)-8-methyl-8H-pyrido(2,3-d)pyrimidin-7-one]: the “inhibition of FGFR family of receptors” value is “inhibits”.
